Source: ChEMBL document CHEMBL5050844 (2019)

Assays:
[1] = Induction of anti-CD3 antibodies-stimulated human CD8+ T cell activation at 10 uM assessed fold increase in cell proliferation measured by flow cytometry analysis; assay type: functional, T cell line; further: reference of the scale not given here
[2] = Induction of anti-CD3/CD28 antibodies-stimulated human T cell activation at 10 uM assessed fold increase in TNF-alpha secretion measured by ELISA assay; assay type: functional, T cell line
[3] = Induction of anti-CD3 antibodies-stimulated human T cell activation at 1.11 uM assessed fold increase in TNF-alpha secretion measured by ELISA assay; assay type: functional, T cell line; further: reference of the scale not given here
[4] = molecular target: T1, E3 ubiquitin-protein ligase CBL-B (Homo sapiens, UniProt Q13191); assay: Inhibition of N-terminal Avi-tagged human CBL-B (36 to 427 residues) incubated with 60 nM Src kinase for 1.5 hrs followed by incubation with fluorescently labeled UbcH5B-Ub for 1 hr and measured by TR-FRET assay; assay type: single protein
T1 sequence (Q13191 whole entry, the tested form may be a part): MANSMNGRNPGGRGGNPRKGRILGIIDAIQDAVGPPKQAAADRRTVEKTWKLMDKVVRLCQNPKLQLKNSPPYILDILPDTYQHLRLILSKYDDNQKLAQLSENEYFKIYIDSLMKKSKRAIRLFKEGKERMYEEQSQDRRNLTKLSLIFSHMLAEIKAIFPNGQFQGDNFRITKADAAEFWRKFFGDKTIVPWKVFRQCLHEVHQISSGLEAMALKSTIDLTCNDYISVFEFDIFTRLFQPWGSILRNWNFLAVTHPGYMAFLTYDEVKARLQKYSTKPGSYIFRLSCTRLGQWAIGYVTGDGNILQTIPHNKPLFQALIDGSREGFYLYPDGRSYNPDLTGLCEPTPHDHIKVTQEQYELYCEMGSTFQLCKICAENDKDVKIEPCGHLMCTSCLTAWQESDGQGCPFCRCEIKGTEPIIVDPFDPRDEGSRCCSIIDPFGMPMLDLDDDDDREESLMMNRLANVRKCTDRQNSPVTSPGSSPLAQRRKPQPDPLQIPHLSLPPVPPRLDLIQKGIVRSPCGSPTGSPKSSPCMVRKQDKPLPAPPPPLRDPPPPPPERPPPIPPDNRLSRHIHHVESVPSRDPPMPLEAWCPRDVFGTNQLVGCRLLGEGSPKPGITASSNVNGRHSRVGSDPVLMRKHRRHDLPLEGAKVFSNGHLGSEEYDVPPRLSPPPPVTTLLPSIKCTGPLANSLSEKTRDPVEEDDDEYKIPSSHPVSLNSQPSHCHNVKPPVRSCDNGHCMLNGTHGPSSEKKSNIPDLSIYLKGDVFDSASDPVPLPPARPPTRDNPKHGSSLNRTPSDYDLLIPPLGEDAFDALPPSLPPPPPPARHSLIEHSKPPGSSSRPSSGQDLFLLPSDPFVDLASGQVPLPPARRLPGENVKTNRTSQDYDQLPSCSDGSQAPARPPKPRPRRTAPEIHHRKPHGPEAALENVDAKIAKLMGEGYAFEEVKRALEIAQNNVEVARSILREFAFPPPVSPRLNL

[5] = Induction of anti-CD3 antibodies-stimulated human exhausted CD8+ T cell activation assessed fold increase in CTLA4 expression measured by flow cytometry analysis; assay type: functional, T cell line; further: reference of the scale not given here
[6] = Induction of activation of human CD56+ CD3- NK cells co-cultured with human K562 cells in 5:1 ratio and assessed as increase in MIP1beta secretion at 10 uM measured by ELISA assay; assay type: functional, Natural killer cell
[7] = Induction of anti-CD3/CD28 antibodies-stimulated human T cell activation at 1.11 uM assessed fold increase in TNF-alpha secretion measured by ELISA assay; assay type: functional, T cell line
[8] = Induction of activation of human CD56+ CD3- NK cells co-cultured with human K562 cells in 1:1 ratio and assessed as increase in MIP1beta secretion at 10 uM measured by ELISA assay; assay type: functional, Natural killer cell
[9] = Induction of activation of human CD56+ CD3- NK cells co-cultured with human K562 cells in 1:1 ratio and assessed as increase in TNF-alpha secretion at 10 uM measured by ELISA assay; assay type: functional, Natural killer cell
[10] = Induction of activation of human CD56+ CD3- NK cells co-cultured with human K562 cells in 5:1 ratio and assessed as increase in TNF-alpha secretion at 10 uM measured by ELISA assay; assay type: functional, Natural killer cell
[11] = Induction of activation of human CD56+ CD3- NK cells co-cultured with human K562 cells in 1:1 ratio and assessed as increase in IFN-gamma secretion at 1 uM measured by ELISA assay; assay type: functional, Natural killer cell
[12] = Induction of anti-CD3/CD28 antibodies-stimulated human T cell activation at 1.11 uM assessed fold increase in GM-CSF secretion measured by ELISA assay; assay type: functional, T cell line
[13] = Induction of activation of human CD56+ CD3- NK cells co-cultured with human K562 cells in 5:1 ratio and assessed as increase in MIP1beta secretion at 1 uM measured by ELISA assay; assay type: functional, Natural killer cell
[14] = Induction of activation of human CD56+ CD3- NK cells co-cultured with human K562 cells in 1:1 ratio and assessed as increase in TNF-alpha secretion at 1 uM measured by ELISA assay; assay type: functional, Natural killer cell
[15] = Induction of activation of human CD56+ CD3- NK cells co-cultured with human K562 cells in 1:1 ratio and assessed as increase in IFN-gamma secretion at 2.5 uM measured by ELISA assay; assay type: functional, Natural killer cell
[16] = Induction of anti-CD3/CD28 antibodies-stimulated human anergic T cell activation at 0.37 uM assessed fold increase in IFN-gamma secretion measured by ELISA assay; assay type: functional, T cell line
[17] = Induction of anti-CD3 antibodies-stimulated human CD8+ T cell activation in immunocompetent mouse assessed fold increase in CD25 expression at 90 mg/kg, po administered twice a day; assay type: functional; further: reference of the scale not given here
[18] = Induction of activation of human CD56+ CD3- NK cells co-cultured with human K562 cells in 5:1 ratio and assessed as increase in IFN-gamma secretion at 1 uM measured by ELISA assay; assay type: functional, Natural killer cell
[19] = Induction of anti-CD3 antibodies-stimulated human CD4+ T cell activation in immunocompetent mouse assessed fold increase in CD25 expression at 90 mg/kg, ip administered twice a day; assay type: functional; further: reference of the scale not given here
[20] = Induction of anti-CD3/CD28 antibodies-stimulated human CD4+ T cell activation at 1.11 uM assessed fold increase in CD69 expression measured by flow cytometry analysis; assay type: functional, T cell line
[21] = Induction of activation of human CD56+ CD3- NK cells co-cultured with human K562 cells in 1:1 ratio and assessed as increase in MIP1beta secretion at 1 uM measured by ELISA assay; assay type: functional, Natural killer cell
[22] = Induction of anti-CD3 antibodies-stimulated human T cell activation at 10 uM assessed fold increase in TNF-alpha secretion measured by ELISA assay; assay type: functional, T cell line; further: reference of the scale not given here
[23] = Induction of anti-CD3 antibodies-stimulated human CD8+ T cell activation at 1.11 uM assessed fold increase in cell proliferation measured by flow cytometry analysis; assay type: functional, T cell line; further: reference of the scale not given here
[24] = Induction of anti-CD3/CD28 antibodies-stimulated human T cell activation at 1 uM assessed fold increase in IL-2 secretion measured by ELISA assay; assay type: functional, T cell line
[25] = Induction of anti-CD3/CD28 antibodies-stimulated human CD8+ T cell activation at 10 uM assessed fold increase in CD69 expression measured by flow cytometry analysis; assay type: functional, T cell line
[26] = Induction of activation of human CD56+ CD3- NK cells co-cultured with human K562 cells in 5:1 ratio and assessed as increase in TNF-alpha secretion at 1 uM measured by ELISA assay; assay type: functional, Natural killer cell
[27] = Induction of activation of human CD56+ CD3- NK cells co-cultured with human K562 cells in 5:1 ratio and assessed as increase in IFN-gamma secretion at 10 uM measured by ELISA assay; assay type: functional, Natural killer cell
[28] = Induction of anti-CD3 antibodies-stimulated human CD8+ T cell activation in immunocompetent mouse assessed fold increase in CD25 expression at 90 mg/kg, ip administered thrice a day; assay type: functional; further: reference of the scale not given here
[29] = Induction of anti-CD3 antibodies-stimulated human CD4+ T cell activation in immunocompetent mouse assessed fold increase in CD25 expression at 135 mg/kg, po administered twice a day; assay type: functional; further: reference of the scale not given here
[30] = molecular target: T1, E3 ubiquitin-protein ligase CBL-B; assay: Binding affinity towards N-terminal biotinylated Avi-tagged human CBL-B (36 to 427 residues) measured by surface plasmon resonance assay
[31] = Induction of anti-CD3 antibodies-stimulated human CD4+ T cell activation in immunocompetent mouse assessed fold increase in CD25 expression at 180 mg/kg, po administered twice a day; assay type: functional; further: reference of the scale not given here
[32] = Induction of anti-CD3 antibodies-stimulated human CD8+ T cell activation in immunocompetent mouse assessed fold increase in CD25 expression at 135 mg/kg, po administered twice a day; assay type: functional; further: reference of the scale not given here
[33] = Induction of anti-CD3 antibodies-stimulated human CD4+ T cell activation in immunocompetent mouse assessed fold increase in CD25 expression at 90 mg/kg, po administered twice a day; assay type: functional; further: reference of the scale not given here
[34] = Induction of anti-CD3 antibodies-stimulated human CD8+ T cell activation in immunocompetent mouse assessed fold increase in CD25 expression at 180 mg/kg, po administered twice a day; assay type: functional; further: reference of the scale not given here

Compound | fold change (FC) [1] | fold change (FC) [2] | fold change (FC) [3] | fold change (FC) [5] | fold change (FC) [6] | fold change (FC) [7] | fold change (FC) [8] | fold change (FC) [9] | fold change (FC) [10] | fold change (FC) [11] | fold change (FC) [12] | fold change (FC) [13] | fold change (FC) [14] | fold change (FC) [15] | fold change (FC) [16] | fold change (FC) [19] | fold change (FC) [20] | fold change (FC) [23] | fold change (FC) [24] | fold change (FC) [25] | also measured
C[C@H](Cc1nncn1C)c1cccc(N2Cc3c(cccc3C(F)(F)F)C2=O)c1.Cl | <=2 | 1.51 | <=1.5 | 1.41 | 1.01 | <=1.5 | 1.01 | <=1 | <=1 | 1.01 | <=1.5 | <=1 | <=1 | 1.01 | <=2.5 | 1 | <=1.2 | <=2 | 2.51 | 1.201 | IC50 [4]: < 100 nM; fold change (FC) [17]: <1; fold change (FC) [18]: 1.01; fold change (FC) [21]: <=1; fold change (FC) [22]: <=1.5; fold change (FC) [26]: <=1; fold change (FC) [27]: >=5
C[C@@H](Sc1nncn1C)c1cccc(NC(=O)c2cccc(C(F)(F)F)n2)c1 | >4 | – | – | <=1.4 | 1.01 | – | 1.01 | 1.01 | <=1 | <=1 | – | <=1 | 1.01 | 1.01 | <=2.5 | 1.51 | 1.201 | 3.01 | 1.01 | 1.201 | fold change (FC) [28]: 1; fold change (FC) [18]: <=1; fold change (FC) [21]: 1.01; fold change (FC) [26]: <=1; fold change (FC) [27]: 1.01
C[C@H](Sc1nncn1C)c1cccc(NC(=O)c2cccc(C(F)(F)F)n2)c1 | <=2 | 2.01 | 1.51 | <=1.4 | 1.01 | 1.51 | 1.01 | 1.01 | 2.01 | 1.01 | 1.51 | <=1 | 1.01 | 1.01 | <=2.5 | 1 | <=1.2 | <=2 | 2.51 | <=1.2 | fold change (FC) [28]: 1.51; fold change (FC) [18]: 1.01; fold change (FC) [21]: 1.01; fold change (FC) [22]: 1.51; fold change (FC) [26]: 1.01; fold change (FC) [27]: 2.01
Cc1cc(C(=O)Nc2cccc(C3(Cc4nncn4C)COC3)c2)nc(C2CC2)n1 | >4 | 2.01 | 1.51 | <=1.4 | – | 2.01 | – | >=5 | – | – | 2.01 | – | – | 2.01 | 2.51 | 1 | 1.401 | >4 | >=7.5 | 1.201 | fold change (FC) [29]: 1.51; Kd [30]: < 100 nM; IC50 [4]: < 100 nM; fold change (FC) [31]: 1.51; fold change (FC) [32]: 1; fold change (FC) [17]: 1; fold change (FC) [28]: 1; fold change (FC) [33]: 1; fold change (FC) [22]: 1.51; fold change (FC) [34]: 1
